From US11661431B2, “Thienopyrrole compounds” (Gilead Sciences, Inc., priority 2021, dated 2023)
Blank lines part the entries; values can stand above or below the compound they belong to.

Columns and labels:
TLR7 = TLR7 (Homo sapiens (Human), UniProt Q9NYK1); experiment: TLR7 human peripheral blood mononuclear cell (PBMC) cell-based assay (GS-986 as agonist; IL-6 and IFNα readout); conditions: human PBMCs, TLR7 agonist GS-986 at 400 nM, 6 hours, antagonist potency; read-out: TLR-7 EC50
Description: Human peripheral blood mononuclear cells (PBMCs) consist of lymphocytes, monocytes and dendritic cells that express TLR7, TLR8 and TLR9. These cells respond to TLR7, TLR8 and TLR9 ligand stimulation and produce cytokines and chemokines in vitro and in vivo. Human PBMCs are therefore suitable to be used in a cell-based assay to assess the in vitro potency of a TLR 7, 8, and/or 9 antagonist.
After counting, the cell density was adjusted to 2 million cells/ml and incubated for 1 hour at 37° C., 5% CO2 for recovery. Following the recovery, the cells were plated by adding 50 μl per well (100,000 cells) to 384-well cell culture plates (Greiner) containing 250 nl of test antagonists in 100% DMSO per well, in a 10 points dose response in quadruplicates. PBMCs were incubated in the presence of test antagonists for one hour at 37° C., 5% CO2 before being stimulated with a TLR7 or TLR9agonist. […] PBMCs were incubated in the presence of the test antagonist and the TLR7 (or TLR9) agonist for an additional 6 hours at 37° C., 5% CO2. At the end of the incubation, the cell culture plates were centrifuged at 500 g for 5 min, and the cell culture supernatant was collected. The level of cytokines (IL-6 and IFNα) in the supernatant was measured by electrochemiluminescence immunoassays (Mesoscale Discovery) following manufacturer's recommended protocols.

TLR8 = TLR8 (Homo sapiens (Human), UniProt Q9NR97); experiment: TLR8 human peripheral blood mononuclear cell (PBMC) cell-based assay (Compound A as agonist; TNFα and IL12p40 readout); conditions: human PBMCs, TLR8 agonist Compound A at 800 nM, 6 hours, antagonist potency; read-out: TLR-8 EC50
TLR8, sequence (Q9NR97 27-1041): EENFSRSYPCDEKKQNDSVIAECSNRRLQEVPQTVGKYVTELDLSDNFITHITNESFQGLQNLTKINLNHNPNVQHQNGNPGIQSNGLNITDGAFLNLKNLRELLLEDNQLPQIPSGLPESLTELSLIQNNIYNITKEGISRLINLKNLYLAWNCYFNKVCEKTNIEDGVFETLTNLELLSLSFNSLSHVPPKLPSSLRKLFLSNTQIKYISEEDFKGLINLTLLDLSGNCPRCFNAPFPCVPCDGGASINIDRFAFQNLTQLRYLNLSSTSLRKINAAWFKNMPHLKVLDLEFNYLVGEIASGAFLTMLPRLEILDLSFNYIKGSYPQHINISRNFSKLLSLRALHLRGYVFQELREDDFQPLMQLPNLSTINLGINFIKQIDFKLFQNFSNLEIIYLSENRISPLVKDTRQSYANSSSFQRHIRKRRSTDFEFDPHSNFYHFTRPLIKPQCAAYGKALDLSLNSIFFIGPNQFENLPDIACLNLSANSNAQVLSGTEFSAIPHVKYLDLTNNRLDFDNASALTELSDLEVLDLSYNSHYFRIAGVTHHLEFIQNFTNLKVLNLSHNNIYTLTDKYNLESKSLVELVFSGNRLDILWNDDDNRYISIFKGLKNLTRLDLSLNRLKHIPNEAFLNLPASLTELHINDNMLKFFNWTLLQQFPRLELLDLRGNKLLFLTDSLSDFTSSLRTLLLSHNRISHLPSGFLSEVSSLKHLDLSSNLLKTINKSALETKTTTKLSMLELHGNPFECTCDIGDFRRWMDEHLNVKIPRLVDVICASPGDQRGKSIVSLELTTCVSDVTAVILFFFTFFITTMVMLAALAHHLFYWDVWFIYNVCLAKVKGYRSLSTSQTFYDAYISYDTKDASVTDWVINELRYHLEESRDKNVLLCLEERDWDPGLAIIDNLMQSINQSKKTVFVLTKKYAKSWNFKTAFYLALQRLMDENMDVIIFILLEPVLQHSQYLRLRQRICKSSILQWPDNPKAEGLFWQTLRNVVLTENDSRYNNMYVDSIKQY
Description: After counting, the cell density was adjusted to 2 million cells/ml and incubated for 1 hour at 37° C., 5% CO2 for recovery. Following the recovery, the cells were plated by adding 50 μl per well (100,000 cells) to 384-well cell culture plates (Greiner) containing 250 nl of test antagonists in 100% DMSO per well, in a 10 points dose response in quadruplicates. PBMCs were incubated in the presence of antagonists for one hour at 37° C., 5% CO2 before being stimulated with TLR8 agonist. […] PBMCs were incubated in the presence of antagonist and the TLR8 agonist for an additional 6 hours at 37° C., 5% CO2. At the end of the incubation, the cell culture plates were centrifuged at 500 g for 5 min, and the cell culture supernatant was collected. The level of cytokines (TNFα and IL12p40) in the supernatant was measured by electrochemiluminescence immunoassays (Mesoscale Discovery) following manufacturer's recommended protocols.

TLR7, sequence (Q9NYK1 27-1049): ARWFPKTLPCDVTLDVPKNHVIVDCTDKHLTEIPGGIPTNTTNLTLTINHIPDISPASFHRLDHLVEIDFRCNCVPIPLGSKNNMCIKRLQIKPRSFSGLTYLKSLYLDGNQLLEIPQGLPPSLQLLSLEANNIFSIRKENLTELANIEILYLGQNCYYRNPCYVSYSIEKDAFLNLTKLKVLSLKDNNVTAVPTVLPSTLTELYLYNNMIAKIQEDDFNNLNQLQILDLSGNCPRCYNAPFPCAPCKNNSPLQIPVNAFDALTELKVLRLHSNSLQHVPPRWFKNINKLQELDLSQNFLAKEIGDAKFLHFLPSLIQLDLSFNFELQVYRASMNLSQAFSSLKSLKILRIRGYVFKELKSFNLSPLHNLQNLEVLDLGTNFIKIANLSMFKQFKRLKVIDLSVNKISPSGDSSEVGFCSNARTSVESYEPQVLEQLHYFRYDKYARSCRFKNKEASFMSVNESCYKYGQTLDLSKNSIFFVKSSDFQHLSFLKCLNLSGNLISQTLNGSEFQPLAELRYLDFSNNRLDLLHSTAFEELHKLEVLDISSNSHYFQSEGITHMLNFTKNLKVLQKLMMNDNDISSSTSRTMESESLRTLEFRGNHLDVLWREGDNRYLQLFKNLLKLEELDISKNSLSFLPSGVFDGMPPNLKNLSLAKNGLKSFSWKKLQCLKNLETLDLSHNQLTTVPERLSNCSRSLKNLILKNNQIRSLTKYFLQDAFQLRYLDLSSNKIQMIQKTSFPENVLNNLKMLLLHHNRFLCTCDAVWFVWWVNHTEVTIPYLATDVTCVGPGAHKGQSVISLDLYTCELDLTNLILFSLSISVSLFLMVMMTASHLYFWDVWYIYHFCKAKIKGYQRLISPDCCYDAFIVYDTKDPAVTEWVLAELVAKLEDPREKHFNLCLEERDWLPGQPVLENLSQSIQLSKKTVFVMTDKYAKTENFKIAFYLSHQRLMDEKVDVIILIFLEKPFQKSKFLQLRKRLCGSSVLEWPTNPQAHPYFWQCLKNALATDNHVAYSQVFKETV

Compound: Cc1cc(-c2[nH]c3sc(C(=O)N(C)C4CCNCC4)cc3c2C(C)C)cn2ncnc12 [Example 1, 4-isopropyl-N-methyl-5-(8-methyl-[1,2,4]triazolo[1,5-a]pyridin-6-yl)-N-(piperidin-4-yl)-6H-thieno[2,3-b]pyrrole-2-carboxamide]
EC50 (TLR7): 0.56 nM
EC50 (TLR8): 8.93 nM

Compound: Cc1cc(-c2[nH]c3sc(C(=O)N4CCNCC4)cc3c2C(C)C)cn2ncnc12 [Example 2]
EC50 (TLR7): 1.04 nM
EC50 (TLR8): 5.79 nM

Compound: Cc1cc(-c2[nH]c3sc(C(=O)N(C)[C@H]4CCNC4)cc3c2C(C)C)cn2ncnc12 [Example 3]
EC50 (TLR7): 0.27 nM
EC50 (TLR8): 9.95 nM

Compound: Cc1cc(-c2[nH]c3sc(C(=O)N(C)C4CCN(CCO)CC4)cc3c2C(C)C)cn2ncnc12 [Example 5]
EC50 (TLR7): 0.5 nM
EC50 (TLR8): 5.96 nM

Compound: Cc1cc(-c2[nH]c3sc(S(=O)(=O)N4CCNCC4)cc3c2C(C)C)cn2ncnc12 [Example 6, 4-Isopropyl-5-(8-methyl-[1,2,4]triazolo[1,5-a]pyridin-6-yl)-2-(piperazin-1-ylsulfonyl)-6H-thieno[2,3-b]pyrrole]
EC50 (TLR7): 21.5 nM
EC50 (TLR8): 84.6 nM

Compound: Cc1c(C(=O)N(C)C2CCN(CCO)CC2)sc2[nH]c(-c3cc(C)c4ncnn4c3)c(C(C)C)c12 [Example 7, N-(1-(2-hydroxyethyl)piperidin-4-yl)-4-isopropyl-N,3-dimethyl-5-(8-methyl-[1,2,4]triazolo[1,5-a]pyridin-6-yl)-6H-thieno[2,3-b]pyrrole-2-carboxamide]
EC50 (TLR7): 0.14 nM
EC50 (TLR8): 3.71 nM

Compound: Cc1c(C2CCNCC2)sc2[nH]c(-c3cc(C)c4ncnn4c3)c(C(C)C)c12 [Example 8, 4-Isopropyl-3-methyl-5-(8-methyl-[1,2,4]triazolo[1,5-a]pyridin-6-yl)-2-(piperidin-4-yl)-6H-thieno[2,3-b]pyrrole]
EC50 (TLR7): 0.08 nM
EC50 (TLR8): 4.92 nM

Compound: Cc1c(C2CCN(CC(N)=O)CC2)sc2[nH]c(-c3cc(C)c4ncnn4c3)c(C(C)C)c12 [Example 9, 2-(4-(4-isopropyl-3-methyl-5-(8-methyl-[1,2,4]triazolo[1,5-a]pyridin-6-yl)-6H-thieno[2,3-b]pyrrol-2-yl)piperidin-1-yl)acetamide]
EC50 (TLR7): 0.64 nM
EC50 (TLR8): 17.1 nM

Compound: Cc1c(C2CCN(C(=O)CN(C)C)CC2)sc2[nH]c(-c3cc(C)c4ncnn4c3)c(C(C)C)c12 [Example 10, 2-(dimethylamino)-1-(4-(4-isopropyl-3-methyl-5-(8-methyl-[1,2,4]triazolo[1,5-a]pyridin-6-yl)-6H-thieno[2,3-b]pyrrol-2-yl)piperidin-1-yl)ethan-1-one]
EC50 (TLR7): 0.18 nM
EC50 (TLR8): 9.29 nM

Compound: Cc1c(C2CCN(CC3(C)COC3)CC2)sc2[nH]c(-c3cc(C)c4ncnn4c3)c(C(C)C)c12 [Example 11]
EC50 (TLR7): 2.47 nM
EC50 (TLR8): 14.3 nM

Compound: Cc1c(C2CCN(CCO)CC2)sc2[nH]c(-c3cc(C)c4ncnn4c3)c(C(C)C)c12 [Example 13, 2-(4-(4-isopropyl-3-methyl-5-(8-methyl-[1,2,4]triazolo[1,5-a]pyridin-6-yl)-6H-thieno[2,3-b]pyrrol-2-yl)piperidin-1-yl)ethan-1-ol]
EC50 (TLR7): 1.27 nM
EC50 (TLR8): 7.11 nM

Compound: Cc1c(C2CCN(C(=O)[C@@H]3CCCN3)CC2)sc2[nH]c(-c3cc(C)c4ncnn4c3)c(C(C)C)c12 [Example 14]
EC50 (TLR7): 0.21 nM
EC50 (TLR8): 13.8 nM

Compound: Cc1c(C2CCN(C(=O)[C@H]3CCCN3)CC2)sc2[nH]c(-c3cc(C)c4ncnn4c3)c(C(C)C)c12 [Example 15]
EC50 (TLR7): 0.12 nM
EC50 (TLR8): 13.4 nM

Compound: Cc1c(C2CCN(C(=O)C3CNC3)CC2)sc2[nH]c(-c3cc(C)c4ncnn4c3)c(C(C)C)c12 [Example 16]
EC50 (TLR7): 1.63 nM
EC50 (TLR8): 46.1 nM

Compound: Cc1c(C2CCN(C(=O)[C@H]3CCCN3C)CC2)sc2[nH]c(-c3cc(C)c4ncnn4c3)c(C(C)C)c12 [Example 18]
EC50 (TLR7): 0.05 nM
EC50 (TLR8): 10.9 nM

Compound: Cc1c(C2CCN(C(=O)[C@@H]3CCCN3C)CC2)sc2[nH]c(-c3cc(C)c4ncnn4c3)c(C(C)C)c12 [Example 19]
EC50 (TLR7): 0.43 nM
EC50 (TLR8): 7.76 nM

Compound: Cc1c(-c2ccc(N3CCNCC3)nc2)sc2[nH]c(-c3cc(C)c4ncnn4c3)c(C(C)C)c12 [Example 20, 4-isopropyl-3-methyl-5-(8-methyl-[1,2,4]triazolo[1,5-a]pyridin-6-yl)-2-(6-(piperazin-1-yl)pyridin-3-yl)-6H-thieno[2,3-b]pyrrole]
EC50 (TLR7): 0.28 nM
EC50 (TLR8): 12 nM

More lines, now with the values ahead:

EC50 (TLR7): 0.78 nM
EC50 (TLR8): 4.44 nM
Compound: Cc1c(-c2[nH]c3sc(C4CCC(N5CC6(CCNC6=O)C5)CC4)c(C)c3c2C(C)C)cn2ncnc2c1C (single isomer, unassigned) [Example 305, 2-[4-[5-(7,8-dimethyl-[1,2,4]triazolo[1,5-a]pyridin-6-yl)-4-isopropyl-3-methyl-6H-thieno[2,3-b]pyrrol-2-yl]cyclohexyl]-2,6-diazaspiro[3.4]octan-5-one]

EC50 (TLR7): < 0.05 nM
EC50 (TLR8): 0.49 nM
Compound: Cc1c(-c2[nH]c3sc(C4CCC(N5CC6(CCNC6=O)C5)CC4)c(C)c3c2C(C)C)cn2ncnc2c1C (single isomer, unassigned) [Example 306, 2-[4-[5-(7,8-dimethyl-[1,2,4]triazolo[1,5-a]pyridin-6-yl)-4-isopropyl-3-methyl-6H-thieno[2,3-b]pyrrol-2-yl]cyclohexyl]-2,6-diazaspiro[3.4]octan-5-one]

EC50 (TLR7): 2.51 nM
EC50 (TLR8): 1.19 nM
Compound: Cc1c(-c2[nH]c3sc(C4CC5(CCN(CCS(C)(=O)=O)C5)C4)c(C)c3c2C(C)C)cn2ncnc2c1C (single isomer, unassigned) [Example 313, 5-(7,8-dimethyl-[1,2,4]triazolo[1,5-a]pyridin-6-yl)-4-isopropyl-3-methyl-2-(6-(2-(methylsulfonyl)ethyl)-6-azaspiro[3.4]octan-2-yl)-6H-thieno[2,3-b]pyrrole]

EC50 (TLR7): 10 nM
EC50 (TLR8): 1.22 nM
Compound: Cc1c(-c2[nH]c3sc(C4CC5(CCN(CCS(C)(=O)=O)C5)C4)c(C)c3c2C(C)C)cn2ncnc2c1C (single isomer, unassigned) [Example 314, 5-(7,8-dimethyl-[1,2,4]triazolo[1,5-a]pyridin-6-yl)-4-isopropyl-3-methyl-2-(6-(2-(methylsulfonyl)ethyl)-6-azaspiro[3.4]octan-2-yl)-6H-thieno[2,3-b]pyrrole]

EC50 (TLR7): 28.2 nM
EC50 (TLR8): 32.4 nM
Compound: Cc1c(-c2[nH]c3sc(C4CCC45CN(CC(N)=O)C5)c(C)c3c2C(C)C)cn2ncnc2c1C (single isomer, unassigned) [Example 315, 2-(5-(5-(7,8-dimethyl-[1,2,4]triazolo[1,5-a]pyridin-6-yl)-4 isopropyl-3-methyl-6H-thieno[2,3-b]pyrrol-2-yl)-2-azaspiro[3.3]heptan-2-yl)acetamide]

EC50 (TLR7): 47.3 nM
EC50 (TLR8): 108 nM
Compound: Cc1c(-c2[nH]c3sc(C4CCC45CN(CC(N)=O)C5)c(C)c3c2C(C)C)cn2ncnc2c1C (single isomer, unassigned) [Example 316, 2-(5-(5-(7,8-dimethyl-[1,2,4]triazolo[1,5-a]pyridin-6-yl)-4-isopropyl-3-methyl-6H-thieno[2,3-b]pyrrol-2-yl)-2-azaspiro[3.3]heptan-2-yl)acetamide]

EC50 (TLR7): 1.08 nM
EC50 (TLR8): 1.25 nM
Compound: Cc1c(-c2cnc3c(c2)CNCC3)sc2[nH]c(-c3cc(C)c4ncnn4c3)c(C(C)C)c12 [Example 21]

EC50 (TLR7): 1.27 nM
EC50 (TLR8): 26.1 nM
Compound: Cc1c(-c2ccc3[nH]c([C@H]4N[C@@H]5CC[C@H]4C5)nc3c2)sc2[nH]c(-c3cc(C)c4ncnn4c3)c(C(C)C)c12 [Example 22]
